Here are results for four molecules from article PMC6683298, “Identifying potential novel drugs against Helicobacter pylori by targeting the essential response regulator HsrA” (Scientific Reports, 2019).

SMILES strings stand for the structures.

The assay deals with T1, HsrA response regulator (HP1043) (Helicobacter pylori, UniProt O25684).
T1 construct: gene HP_1043; N-terminal 6xHis tag, removed with thrombin; 223 residues; symmetric dimer
T1 sequence (O25684 1-223): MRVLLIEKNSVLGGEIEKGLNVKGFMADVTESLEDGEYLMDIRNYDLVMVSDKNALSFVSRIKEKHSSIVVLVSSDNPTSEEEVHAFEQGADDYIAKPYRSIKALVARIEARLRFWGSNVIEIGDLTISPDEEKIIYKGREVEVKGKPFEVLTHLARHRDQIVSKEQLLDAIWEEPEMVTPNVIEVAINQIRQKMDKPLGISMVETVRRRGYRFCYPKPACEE
As to the kind of experiment: isothermal titration calorimetry. The assay is classed as binding. To be noted: read-out: ITC^a / Kd. From the text:
isothermal titration calorimetry on HsrA response regulator (HP1043)
As for `O=c1cc(-c2ccc(O)cc2)oc2cc(O)cc(O)c12` [apigenin], the Kd came to 20 µM.
Next, `O=c1cc(-c2ccccc2)oc2cc(O)cc(O)c12` [chrysin]: 17 µM.
With `COc1ccc([C@@H]2CC(=O)c3c(O)cc(O)cc3O2)cc1O` [hesperetin], the Kd is 26 µM.
With `O=c1c(O)c(-c2ccc(O)cc2)oc2cc(O)cc(O)c12` [kaempferol], the Kd is 33 µM.
